Laboratory results as given in PMC12188386, “Selective CBP/EP300 Bromodomain Inhibitors: Novel Epigenetic Tools to Counter TNF-α-Driven Inflammation” (JACS Au, 2025).

What was measured:
Assay in all cases: NCI-60 one-dose screen
Assay type in all cases: cell-based, human
HS 578T = conditions: 10 µM, 48 h, Breast Cancer
Description: (§1) Adapted from NCI-60 Screening Methodology, one-dose screen:20 Briefly, human tumor cell lines, grown in RPMI 1640 containing 5% FBS and 2 mM L-glutamine, were plated in 96 well plates at densities ranging from 5,000 to 40,000 cells/well 24 h prior to addition of test compounds (here 10 μM 2). 400x solutions of test compounds were prepared in DMSO, then diluted to 2x in medium supplemented with 50 μg/mL gentamicin. 100 μl of this 2x stock was added to cells previously plated in 100 μl medium, resulting in the desired final compound concentration. Cells were fixed in situ with cold TCA: untreated cells at the time of compound addition (Tz) and treated cells 48 h after addition of compound (Ti). Cells were washed, then su f rh damine s uti n μ at . w/v in acetic acid was added to each well and incubated for 10 minutes at room temperature. After washing again, the plates were air dried and bound stain solubilized with 10 mM Trizma base before absorbance was […]
(§2) Percentage growth (%Growth) was calculated as follows:
(§3) when Ti ≥ Tz, %Growth = Ti − Tz x 100 where Ti = absorbance from compound treated cells, Tz = absorbance from untreated cells at time zero, and C = absorbance from control (DMSO) treated cells. […]

CAKI-1 = conditions: 10 µM, 48 h, Renal Cancer
Description: as §1, §2, §3

DU-145 = conditions: 10 µM, 48 h, Prostate Cancer
Description: as §1, §2, §3

EKVX = conditions: 10 µM, 48 h, Non-Small Cell Lung Cancer
Description: as §1, §2, §3

A549/ATCC = conditions: 10 µM, 48 h, Non-Small Cell Lung Cancer
Description: as §1, §2, §3

SK-OV-3 = conditions: 10 µM, 48 h, Ovarian Cancer
Description: as §1, §2, §3

OVCAR-8 = conditions: 10 µM, 48 h, Ovarian Cancer
Description: as §1, §2, §3

KM12 = conditions: 10 µM, 48 h, Colon Cancer
Description: as §1, §2, §3

SK-MEL-2 = conditions: 10 µM, 48 h, Melanoma
Description: as §1, §2, §3

HCT-116 = conditions: 10 µM, 48 h, Colon Cancer
Description: as §1, §2, §3

SF-295 = conditions: 10 µM, 48 h, CNS Cancer
Description: as §1, §2, §3

OVCAR-4 = conditions: 10 µM, 48 h, Ovarian Cancer
Description: as §1, §2, §3

NCI-H322M = conditions: 10 µM, 48 h, Non-Small Cell Lung Cancer
Description: as §1, §2, §3

MDA-MB-435 = conditions: 10 µM, 48 h, Melanoma, values <0 indicate lethality
Description: as §1, §2, §3

HCC-2998 = conditions: 10 µM, 48 h, Colon Cancer
Description: as §1, §2, §3

K-562 = conditions: 10 µM, 48 h, Leukemia
Description: as §1, §2, §3

MDA-MB-231/ATCC = conditions: 10 µM, 48 h, Breast Cancer
Description: as §1, §2, §3

SNB-75 = conditions: 10 µM, 48 h, CNS Cancer
Description: as §1, §2, §3

SF-539 = conditions: 10 µM, 48 h, CNS Cancer
Description: as §1, §2, §3

UACC-257 = conditions: 10 µM, 48 h, Melanoma
Description: as §1, §2, §3

NCI-H460 = conditions: 10 µM, 48 h, Non-Small Cell Lung Cancer
Description: as §1, §2, §3

PC-3 = conditions: 10 µM, 48 h, Prostate Cancer
Description: as §1, §2, §3

HCT-15 = conditions: 10 µM, 48 h, Colon Cancer
Description: as §1, §2, §3

786-0 = conditions: 10 µM, 48 h, Renal Cancer
Description: as §1, §2, §3

SN12C = conditions: 10 µM, 48 h, Renal Cancer
Description: as §1, §2, §3

NCI/ADR-RES = conditions: 10 µM, 48 h, Ovarian Cancer
Description: as §1, §2, §3

TK-10 = conditions: 10 µM, 48 h, Renal Cancer
Description: as §1, §2, §3

HOP-92 = conditions: 10 µM, 48 h, Non-Small Cell Lung Cancer
Description: as §1, §2, §3

SNB-19 = conditions: 10 µM, 48 h, CNS Cancer
Description: as §1, §2, §3

T-47D = conditions: 10 µM, 48 h, Breast Cancer
Description: as §1, §2, §3

OVCAR-3 = conditions: 10 µM, 48 h, Ovarian Cancer
Description: as §1, §2, §3

MALME-3M = conditions: 10 µM, 48 h, Melanoma
Description: as §1, §2, §3

SK-MEL-28 = conditions: 10 µM, 48 h, Melanoma
Description: as §1, §2, §3

SK-MEL-5 = conditions: 10 µM, 48 h, Melanoma, values <0 indicate lethality
Description: as §1, §2, §3

A498 = conditions: 10 µM, 48 h, Renal Cancer
Description: as §1, §2, §3

ACHN = conditions: 10 µM, 48 h, Renal Cancer
Description: as §1, §2, §3

LOX IMVI = conditions: 10 µM, 48 h, Melanoma
Description: as §1, §2, §3

NCI-H226 = conditions: 10 µM, 48 h, Non-Small Cell Lung Cancer
Description: as §1, §2, §3

IGROV1 = conditions: 10 µM, 48 h, Ovarian Cancer
Description: as §1, §2, §3

SR = conditions: 10 µM, 48 h, Leukemia
Description: as §1, §2, §3

HOP-62 = conditions: 10 µM, 48 h, Non-Small Cell Lung Cancer
Description: as §1, §2, §3

SW-620 = conditions: 10 µM, 48 h, Colon Cancer
Description: as §1, §2, §3

HT29 = conditions: 10 µM, 48 h, Colon Cancer
Description: as §1, §2, §3

MOLT-4 = conditions: 10 µM, 48 h, Leukemia
Description: as §1, §2, §3

For `Cc1cc2c(NC(=O)c3cc(NC(=O)c4ccco4)cc(-c4ccn(C)n4)c3)cccc2nn1` [Compound 2], the “%Growth” value (HS 578T) was 19%, the “%Growth” value (CAKI-1) was 22% and the “%Growth” value (DU-145) was 87%. The “%Growth” value (EKVX) was 63%, the “%Growth” value (A549/ATCC) was 61% and the “%Growth” value (SK-OV-3) was 86%. The “%Growth” value (OVCAR-8) was 67%, the “%Growth” value (KM12) was 28% and the “%Growth” value (SK-MEL-2) was 18%. For the same molecule, the “%Growth” value (HCT-116) was 38%, the “%Growth” value (SF-295) was 42% and the “%Growth” value (OVCAR-4) was 63%. The “%Growth” value (NCI-H322M) was 86%, the “%Growth” value (MDA-MB-435) was -47% and the “%Growth” value (HCC-2998) was 66%. For the same molecule, the “%Growth” value (K-562) was 29%, the “%Growth” value (MDA-MB-231/ATCC) was 57% and the “%Growth” value (SNB-75) was 27%. The “%Growth” value (SF-539) was 44%, the “%Growth” value (UACC-257) was 66% and the “%Growth” value (NCI-H460) was 18%. The “%Growth” value (PC-3) was 54%, the “%Growth” value (HCT-15) was 64% and the “%Growth” value (786-0) was 57%. For the same molecule, the “%Growth” value (SN12C) was 63%, the “%Growth” value (NCI/ADR-RES) was 91% and the “%Growth” value (TK-10) was 78%. For the same molecule, the “%Growth” value (HOP-92) was 63%, the “%Growth” value (SNB-19) was 66% and the “%Growth” value (T-47D) was 44%. The “%Growth” value (OVCAR-3) was 23%, the “%Growth” value (MALME-3M) was 40% and the “%Growth” value (SK-MEL-28) was 68%. The “%Growth” value (SK-MEL-5) was -36%, the “%Growth” value (A498) was 91% and the “%Growth” value (ACHN) was 73%. For the same molecule, the “%Growth” value (LOX IMVI) was 34%, the “%Growth” value (NCI-H226) was 49% and the “%Growth” value (IGROV1) was 54%. The “%Growth” value (SR) was 19%, the “%Growth” value (HOP-62) was 67% and the “%Growth” value (SW-620) was 52%. For the same molecule, the “%Growth” value (HT29) was 21% and the “%Growth” value (MOLT-4) was 53%.
